# Target: EN PA (Influenza A virus, UniProt P15659)
# Test: EN PA FRET Inhibition Assay
# Format: biochemical
# Conditions: read-out: Potency
row,Structure (SMILES),IC50 [nM]
1,O=C(NCc1cncnc1)c1nn(CC2(c3ccccc3)CCCC2)cc(O)c1=O [Compound 693],< 100
2,O=C(O)c1nn(CCc2cccc(C(F)(F)F)c2)cc(O)c1=O [Compound 412],< 100
3,CNC(=O)c1nn(CC2(c3cccc(C(C)C)c3)CCCC2)cc(O)c1=O [Compound 665],< 100
4,CNC(=O)c1nn(CC2(n3cc(C)c4cccnc43)CCCC2)cc(OCc2ccccc2)c1=O [Compound 852],≥ 1000
5,O=C(NC1(C(F)(F)F)CCCC1)c1nn(CC2(c3cccc(C(F)(F)F)c3)CCCC2)cc(O)c1=O [Compound 503],100 to 1000
6,O=C1NCC/C=C/Cc2ccc3ccn(c3c2)C2(CCCC2)Cn2cc(O)c(=O)c1n2 [Compound 841],100 to 1000
7,CNC(=O)c1nn(CC2(n3cc(C)c4cccnc43)CCCC2)cc(O)c1=O [Compound 622],100 to 1000
8,CC(C)(C)NC(=O)c1nn(CC2(n3ccc4cc(F)ccc43)CCCC2)cc(O)c1=O [Compound 819],< 100
9,CNC(=O)c1nn(-c2ccccc2S(=O)(=O)c2ccccc2)cc(O)c1=O [Compound 603],≥ 1000
10,O=C(O)c1nn(Cc2ccccc2)cc(O)c1=O [Compound 409],100 to 1000
11,O=C(O)c1nn(-c2ccccc2-c2ccc3[nH]ccc3c2)cc(O)c1=O [Compound 320],100 to 1000
12,CNC(=O)c1nn(CC2(c3ccc(C(F)(F)F)cc3)CCCC2)cc(O)c1=O [Compound 685],< 100
13,O=C(NCC1CC1)c1nn(CC2(c3ccccc3)CCCC2)cc(O)c1=O [Compound 677],< 100
14,CNC(=O)c1nn(CC2(c3cc(F)cc(C(F)(F)F)c3)CCCC2)cc(O)c1=O [Compound 800],< 100
15,CS(=O)(=O)NC(=O)c1nn(CC2(c3cccc(C(F)(F)F)c3)CCCC2)cc(O)c1=O [Compound 512],100 to 1000
16,Cc1cn(C2(Cn3cc(O)c(=O)c(C(=O)NC(C)(C)CNC(=O)OC(C)(C)C)n3)CCCC2)c2ncccc12 [Compound 863],100 to 1000
17,CNC(=O)c1nn(CC2(n3ccc4cc(C5CC5)cnc43)CCCC2)cc(O)c1=O [Compound 754],< 100

row,Structure (SMILES),IC50 [nM]
1,O=C(O)c1nn(-c2cccc(Oc3ccccc3)c2)cc(O)c1=O [Compound 6],100 to 1000
2,CNC(=O)c1nn(CC2(c3ccc4ccccc4c3)CCCC2)cc(O)c1=O [Compound 777],< 100
3,CNC(=O)c1nn(Cc2ccccc2-c2ccccc2)cc(O)c1=O [Compound 654],100 to 1000
4,CC(=O)c1nn(CC2(n3cc(C)c4cccnc43)CCCC2)cc(O)c1=O [Compound 795],100 to 1000
5,O=C(NCc1ccc(Cl)c(Cl)c1)c1nn(CC2(c3cccc(C(F)(F)F)c3)CCCC2)cc(O)c1=O [Compound 513],100 to 1000
6,CNC(=O)c1nn(CCc2cccc3ccccc23)cc(O)c1=O [Compound 614],100 to 1000
7,CNC(=O)c1nn(CC2(c3cc(Cl)cc(C(F)(F)F)c3)CCCC2)cc(O)c1=O [Compound 768],< 100
8,CNC(=O)c1nn(CC2(n3cc(C(C)C)c4cccnc43)CCCC2)cc(O)c1=O [Compound 694],100 to 1000
9,CONC(=O)c1nn(CC2(n3cc(C)c4cccnc43)CCCC2)cc(O)c1=O [Compound 854],< 100
10,CNC(=O)c1nn(CC2(c3ccc4ccccc4n3)CCCC2)cc(O)c1=O [Compound 843],< 100
11,CN(Cc1ccccc1-n1cc(O)c(=O)c(C(=O)O)n1)C1CCCCC1 [Compound 19],100 to 1000
12,CNC(=O)c1nn(CC2(c3ccc(Cl)c(Cl)c3)CCCC2)cc(O)c1=O [Compound 752],< 100
13,CNC(=O)c1nn(CC2(n3cc(C4CC4)c4cccnc43)CCCC2)cc(O)c1=O [Compound 718],< 100
14,CNC(=O)c1nn(-c2ccccc2-c2ccccc2OC2CCCC2)cc(O)c1=O [Compound 610],100 to 1000
15,CNC(=O)c1nn(CC2(n3ccc4cc(OC)cnc43)CCCC2)cc(O)c1=O [Compound 886],< 100
16,CNC(=O)c1nn(CC2(n3ccc4cc(F)ccc43)CCCC2)cc(O)c1=O [Compound 816],< 100
17,Cc1cn(C2(Cn3cc(O)c(=O)c(C(=O)NCC(C)C)n3)CCCC2)c2ncccc12 [Compound 821],< 100

# System: Influenza strain A549 A/WSN/33 (H1N1)
# Test: Influenza Antiviral Assay
# Format: cell-based, Influenza A virus
# Conditions: Influenza A virus, A549, 20 h, neuraminidase fluorescence readout, read-out: % Inhibition
row,Structure (SMILES),EC50 [nM]
1,O=C(NCc1cncnc1)c1nn(CC2(c3ccccc3)CCCC2)cc(O)c1=O [Compound 693],< 20000
2,O=C(O)c1nn(CCc2cccc(C(F)(F)F)c2)cc(O)c1=O [Compound 412],> 100000
3,CNC(=O)c1nn(CC2(c3cccc(C(C)C)c3)CCCC2)cc(O)c1=O [Compound 665],< 20000
4,CNC(=O)c1nn(CC2(n3cc(C)c4cccnc43)CCCC2)cc(OCc2ccccc2)c1=O [Compound 852],> 100000
5,O=C(NC1(C(F)(F)F)CCCC1)c1nn(CC2(c3cccc(C(F)(F)F)c3)CCCC2)cc(O)c1=O [Compound 503],< 20000
6,O=C1NCC/C=C/Cc2ccc3ccn(c3c2)C2(CCCC2)Cn2cc(O)c(=O)c1n2 [Compound 841],< 20000
7,CNC(=O)c1nn(CC2(n3cc(C)c4cccnc43)CCCC2)cc(O)c1=O [Compound 622],< 20000
8,CC(C)(C)NC(=O)c1nn(CC2(n3ccc4cc(F)ccc43)CCCC2)cc(O)c1=O [Compound 819],< 20000
9,CNC(=O)c1nn(-c2ccccc2S(=O)(=O)c2ccccc2)cc(O)c1=O [Compound 603],> 100000
10,O=C(O)c1nn(Cc2ccccc2)cc(O)c1=O [Compound 409],> 100000
11,O=C(O)c1nn(-c2ccccc2-c2ccc3[nH]ccc3c2)cc(O)c1=O [Compound 320],> 100000
12,CNC(=O)c1nn(CC2(c3ccc(C(F)(F)F)cc3)CCCC2)cc(O)c1=O [Compound 685],< 20000
13,O=C(NCC1CC1)c1nn(CC2(c3ccccc3)CCCC2)cc(O)c1=O [Compound 677],< 20000
14,CNC(=O)c1nn(CC2(c3cc(F)cc(C(F)(F)F)c3)CCCC2)cc(O)c1=O [Compound 800],< 20000
15,CS(=O)(=O)NC(=O)c1nn(CC2(c3cccc(C(F)(F)F)c3)CCCC2)cc(O)c1=O [Compound 512],< 20000
16,Cc1cn(C2(Cn3cc(O)c(=O)c(C(=O)NC(C)(C)CNC(=O)OC(C)(C)C)n3)CCCC2)c2ncccc12 [Compound 863],< 20000
17,CNC(=O)c1nn(CC2(n3ccc4cc(C5CC5)cnc43)CCCC2)cc(O)c1=O [Compound 754],< 20000

row,Structure (SMILES),EC50 [nM]
1,O=C(O)c1nn(-c2cccc(Oc3ccccc3)c2)cc(O)c1=O [Compound 6],> 100000
2,CNC(=O)c1nn(CC2(c3ccc4ccccc4c3)CCCC2)cc(O)c1=O [Compound 777],< 20000
3,CNC(=O)c1nn(Cc2ccccc2-c2ccccc2)cc(O)c1=O [Compound 654],> 100000
4,CC(=O)c1nn(CC2(n3cc(C)c4cccnc43)CCCC2)cc(O)c1=O [Compound 795],< 20000
5,O=C(NCc1ccc(Cl)c(Cl)c1)c1nn(CC2(c3cccc(C(F)(F)F)c3)CCCC2)cc(O)c1=O [Compound 513],< 20000
6,CNC(=O)c1nn(CCc2cccc3ccccc23)cc(O)c1=O [Compound 614],20000 to 100000
7,CNC(=O)c1nn(CC2(c3cc(Cl)cc(C(F)(F)F)c3)CCCC2)cc(O)c1=O [Compound 768],< 20000
8,CNC(=O)c1nn(CC2(n3cc(C(C)C)c4cccnc43)CCCC2)cc(O)c1=O [Compound 694],< 20000
9,CONC(=O)c1nn(CC2(n3cc(C)c4cccnc43)CCCC2)cc(O)c1=O [Compound 854],< 20000
10,CNC(=O)c1nn(CC2(c3ccc4ccccc4n3)CCCC2)cc(O)c1=O [Compound 843],< 20000
11,CN(Cc1ccccc1-n1cc(O)c(=O)c(C(=O)O)n1)C1CCCCC1 [Compound 19],> 100000
12,CNC(=O)c1nn(CC2(c3ccc(Cl)c(Cl)c3)CCCC2)cc(O)c1=O [Compound 752],< 20000
13,CNC(=O)c1nn(CC2(n3cc(C4CC4)c4cccnc43)CCCC2)cc(O)c1=O [Compound 718],< 20000
14,CNC(=O)c1nn(-c2ccccc2-c2ccccc2OC2CCCC2)cc(O)c1=O [Compound 610],20000 to 100000
15,CNC(=O)c1nn(CC2(n3ccc4cc(OC)cnc43)CCCC2)cc(O)c1=O [Compound 886],< 20000
16,CNC(=O)c1nn(CC2(n3ccc4cc(F)ccc43)CCCC2)cc(O)c1=O [Compound 816],< 20000
17,Cc1cn(C2(Cn3cc(O)c(=O)c(C(=O)NCC(C)C)n3)CCCC2)c2ncccc12 [Compound 821],< 20000
